Here are results for six compounds from patent US20230159527A1, “COMPOUNDS AS BCL-2 INHIBITORS” (Fochon Pharmaceuticals, Ltd., priority 2020, published 2023).

What all share (type): cell-based
Assay [1] deals with RS4;11 cells. Kind of assay: Cell proliferation assay, RS4;11 cells (MTS, 72 h). As to conditions: Homo sapiens, RS4;11 cell proliferation. An outline of the steps: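 RS4;11 cells (30000/well, RPMI-1640 plus 10% FBS) treated with compounds at 1.5-10000 nM for 72 h at 37° C, 5% CO2. Viability by MTS (2 h), absorbance at 490 nm with 650 nm reference; IC50 from proliferation inhibition.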

Assay [2] deals with DoHH2 cells. The experiment in a line: Cell proliferation assay, DoHH2 cells (MTS, 120 h). As to conditions: Homo sapiens, DOHH-2. A digest of the protocol: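 DoHH2 cells in RPMI-1640 with 10% FBS were plated at 5000/well and rested 4 h. They were then exposed to compound at nine final concentrations (10000 to 1.5 nM) for 120 h at 37 °C. Viability was read by MTS (2 h, A490) and IC50 derived by curve fitting.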

Assay [3] relates to Toledo cells. The experiment in a line: Cell proliferation assay, Toledo cells (MTS, 72 h). As to conditions: Homo sapiens, Toledo cells, MTS, read-out: Toledo IC50. A digest of the protocol: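 Toledo cells (30000/well, RPMI-1640 with 10% FBS) were preincubated for 4 h. They were then exposed to nine compound concentrations from 10000 to 1.5 nM for 72 h at 37 °C, 5% CO2. MTS was added for 2 h and absorbance read at 490 nm to give IC50.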

By IC50 is commonly meant the concentration needed to halve the response being measured. Take `O=C(NS(=O)(=O)c1cc2c(c([N+](=O)[O-])c1)O[C@H](CN1CCOCC1)CO2)c1ccc(N2CCC3(CC2)CC(N2CCC[C@H]2c2ccccc2C2CC2)C3)cc1Oc1cnc2[nH]ccc2c1` (single isomer, unassigned) [Example E-38, 2-((1H-pyrrolo [2,3-b]pyridin-5-yl)oxy)-4-(2-((R or S)-2-(2-cyclopropylphenyl)pyrrolidin-1-yl)-7-azaspiro[3.5]nonan-7-yl)-N-(((R)-2-(morpholinomethyl)-8-nitro-2,3-dihydrobenzo [b][1,4]dioxin-6-yl)sulfonyl) benzamide]: the results for the 50% inhibitory concentration (IC50) in assay [1], in assay [2] and in assay [3] were at most 1 nM, at most 1 nM and 1 nM, respectively.

Take `CC(C)c1ccccc1[C@H]1CCCN1C1CC2(CCN(c3ccc(C(=O)NS(=O)(=O)c4cnc(NCC5(F)CCOCC5)c([N+](=O)[O-])c4)c(Oc4cnc5[nH]ccc5c4)c3)CC2)C1` [Example A-31b, (R)-2-((1H-pyrrolo[2,3-b]pyridin-5-yl)oxy)-N-((6-(((4-fluorotetra-hydro-2H-pyran-4-yl)methyl)amino)-5-nitropyridin-3-yl)sulfonyl)-4-(2-(2-(2-isopropylphenyl)pyrrolidin-1-yl)-7-azaspiro[3.5]nonan-7-yl)benzamide]: the IC50 in assay [1] was at most 1 nM; in assay [2], at most 1 nM; in assay [3] it was 2 nM.

On to `CN1CCN(C2CC3(CCN(c4ccc(C(=O)NS(=O)(=O)c5cnc(NCC6CCOCC6)c([N+](=O)[O-])c5)c(Oc5cnc6[nH]ccc6c5)c4)CC3)C2)[C@H](c2ccccc2C2CC2)C1` (single isomer, unassigned) [Example A-39a, (R or S)-2-((1H-pyrrolo[2,3-b]pyridin-5-yl)oxy)-4-(2-(2-(2-cyclopropyl-phenyl)-4-methylpiperazin-1-yl)-7-azaspiro[3.5]nonan-7-yl)-N-((5-nitro-6-(((tetrahydro-2H-pyran-4-yl)methyl)amino)pyridin-3-yl)sulfonyl) benzamide], for which the IC50 was at most 1 nM in assay [1], at most 1 nM in assay [2] and 1 nM in assay [3].

Regarding `CC(C)c1ccccc1[C@H]1CCCN1C1CC2(CCN(c3ccc(C(=O)NS(=O)(=O)c4cnc(NCC5C6COCC56)c([N+](=O)[O-])c4)c(Oc4cnc5[nH]ccc5c4)c3)CC2)C1` (stereo partly drawn) [Example A-27b, 2-((1H-pyrrolo[2,3-b]pyridin-5-yl)oxy)-N-((6-(((3-oxabicyclo[3.1.0]hexan-6-yl)methyl)amino)-5-nitro-pyridin-3-yl)sulfonyl)-4-(2-((R)-2-(2-isopropylphenyl)pyrrolidin-1-yl)-7-azaspiro[3.5]nonan-7-yl) benzamide], the IC50 in assay [1] was at most 1 nM; in assay [2], at most 1 nM; in assay [3], 1 nM.

As for `CC(C)c1ccccc1[C@@H]1CCCN1C1CC2(CCN(c3ccc(C(=O)NS(=O)(=O)c4cc5c(c([N+](=O)[O-])c4)O[C@H](CN4CCOCC4)CO5)c(Oc4cnc5[nH]ccc5c4)c3)CC2)C1` (single isomer, unassigned) [Example E-39, 2-((1H-pyrrolo [2,3-b]pyridin-5-yl)oxy)-4-(2-((R or S)-2-(2-isopropylphenyl)pyrrolidin-1-yl)-7-azaspiro[3.5]nonan-7-yl)-N-(((R)-2-(morpholinomethyl)-8-nitro-2,3-dihydrobenzo [b][1,4]dioxin-6-yl)sulfonyl) benzamide], the IC50 was at most 1 nM in assay [1], at most 1 nM in assay [2] and 1 nM in assay [3].

Take `CC(C)c1ccccc1[C@@H]1COCCN1C1CC2(CCN(c3ccc(C(=O)NS(=O)(=O)c4cc5c(c([N+](=O)[O-])c4)O[C@H](CN4CCOCC4)CO5)c(Oc4cnc5[nH]ccc5c4)c3)CC2)C1` (single isomer, unassigned) [Example E-40, 2-((1H-pyrrolo [2,3-b]pyridin-5-yl)oxy)-4-(2-((R or S)-3-(2-isopropylphenyl)morpholino)-7-azaspiro[3.5]nonan-7-yl)-N-(((R)-2-(morpholinomethyl)-8-nitro-2,3-dihydrobenzo [b][1,4]dioxin-6-yl)sulfonyl) benzamide]: the IC50 in assay [1] is at most 1 nM; in assay [2], at most 1 nM; in assay [3], 1 nM.
